Results taken from patent US9370520B2, “Macrocyclic LRRK2 kinase inhibitors” (IPSEN PHARMA S.A.S., priority 2011, dated 2016).
pIC50: −log10 of the molar value. Read-outs that look alike come from different tables or passages of the source.

Tests used:
truncated LRRK2 = molecular target: T1, truncated LRRK2 (Homo sapiens, UniProt Q5S007); assay: radiometric protein kinase assay (33PanQinase Activity Assay, Protocol 2), truncated LRRK2; format: biochemical
T1 construct: a truncated LRRK2 enzyme (GST tagged LRRK2 of amino acids 970-2527); GST; purchased Invitrogen Corporation
Method: (§1) The inhibition of LRRK2 and LRRK1 kinase was assessed using LRRK2 and LRRK1 recombinant protein in an in vitro peptide-based kinase assay.
A radiometric protein kinase assay (^33PanQinase® Activity Assay) is used for measuring the kinase activity. All assays are performed in 96-well FlashPlates™ from Perkin Elmer in a 50 μl reaction volume. The reaction cocktail is pipetted in 4 steps in the following order: • 10 μl of non-radioactive ATP solution (in H2O) • 25 μl of assay buffer/[γ-^33P]-ATP mixture • 5 μl of test sample in 10% DMSO • 10 μl of enzyme/substrate mixture
The kinase is obtained from Invitrogen Corporation.
The reaction cocktails were incubated at 30° C. for 60 minutes. The reaction was stopped with 50 μl of 2% (v/v) H3PO4, plates were aspirated and washed two times with 200 μl 0.9% (w/v) NaCl. Incorporation of ^33Pi (counting of “cpm”) was determined with a microplate scintillation counter.

[1] = not given; remark: listed apart in the source
[2] = molecular target: T2, truncated LRRK2 (GST tagged LRRK2 of amino acids 970-2527) (Homo sapiens, UniProt Q5S007); assay: LRRKtide 32P-ATP peptide kinase assay (Protocol 1), truncated LRRK2; format: biochemical; conditions: 10 μM ATP, 200 μM lrrktide
T2 construct: GST tagged LRRK2 of amino acids 970-2527; GST
Method: as §1
(§2) LRRK2 protein is prepared as described in Daniëls et al. ((2011) J Neurochem 116, 304-315.). HEK293T cells are transfected with pCHMWS-3xflag-LRRK2 plasmid using polyethyleneimine and lysed after 48-72 hours in lysis buffer (Tris 20 mM pH 7.5, NaCl 150 mM, EDTA 1 mM, Triton 1%, Glycerol 10%, protease inhibitor cocktail). Lysates are cleared by centrifugation at 20,000 g for 10 minutes and incubated with normal mouse IgGs bound to agarose beads to remove proteins aspecifically binding to agarose or mouse IgGs. After removal of the IgG bead slurry, lysates are incubated for 3 to 18 hours with flagM2 bound to agarose beads. Beads are washed 4 times with wash buffer (Tris 25 mM pH 7.5, NaCl 400 mM, Triton 1%) and rinsed in kinase buffer (Tris-HCl 25 mM pH 7.5, 10 mM MgCl2, 2 mM dithiothreitol (DTT), 0.02% triton, 5 mM beta-glycerophosphate, 0.1 mM Na3VO4). Proteins are eluted in 5 volumes of kinase buffer containing 100 μg/ml 3xflag peptide. For assays using purified protein bound to affinity resin, affinity beads are resuspended in an equal volume of kinase buffer unless otherwise indicated. Purity and concentration are assessed by SDS-PAGE (3-8% tris-acetate SDS gel) and Coomassie Brilliant Blue staining or silver staining. Alternatively, a truncated LRRK2 enzyme (GST tagged LRRK2 of amino acids 970-2527) and a truncated LRRK2-G2019S (GST tagged LRRK2-G2019S of amino acids 970-2527) are used.
(§3) For Irrktide phosphorylation, recombinant LRRK2 is incubated with 6 μCi of 32P-ATP (3000 Ci/mmol), 200 μM Irrktide, 10 μM ATP and compound or solvent per 40 μl reaction for 30 minutes at 30° C. Compounds are tested at concentrations ranging from […]; the final amount of DMSO in the kinase reaction is 1%. Reactions are stopped and spotted to P81 phosphocellulose paper and washed 4×10 minutes in 75 mM phosphoric acid. Lrrktide phosphorylation levels are measured via autoradiography. Kinase assays are performed for each condition in triplicate.
(§4) LRRKtide phosphorylation levels are plotted vs. the log of the compound concentration and inhibition curves are fitted from which IC50 values are derived.

[3] = molecular target: T3, truncated LRRK2-G2019S (GST tagged LRRK2-G2019S of amino acids 970-2527) (Homo sapiens, UniProt Q5S007, G2019S); assay: LRRKtide 32P-ATP peptide kinase assay (Protocol 1), truncated LRRK2-G2019S; format: biochemical; conditions: 10 μM ATP, 200 μM lrrktide
T3 construct: GST tagged LRRK2-G2019S of amino acids 970-2527; GST
Method: as §1, §2, §3, §4

full-length LRRK2 = molecular target: T4, full-length LRRK2 (Homo sapiens, UniProt Q5S007); assay: LRRKtide 32P-ATP peptide kinase assay (Protocol 1), full-length LRRK2; format: biochemical; conditions: 10 μM ATP, 200 μM lrrktide
T4 construct: full-length; made in house; host or cells: HEK293T
Method: as §1, §2
as §3, with “triplicate. […]” for “triplicate.”

[4] = Protocol 2, ATP 0.3 μM, substrate GSK3(14-27), read-out: IC50 for truncated LRRK2

T1 sequence (Q5S007 970-2527): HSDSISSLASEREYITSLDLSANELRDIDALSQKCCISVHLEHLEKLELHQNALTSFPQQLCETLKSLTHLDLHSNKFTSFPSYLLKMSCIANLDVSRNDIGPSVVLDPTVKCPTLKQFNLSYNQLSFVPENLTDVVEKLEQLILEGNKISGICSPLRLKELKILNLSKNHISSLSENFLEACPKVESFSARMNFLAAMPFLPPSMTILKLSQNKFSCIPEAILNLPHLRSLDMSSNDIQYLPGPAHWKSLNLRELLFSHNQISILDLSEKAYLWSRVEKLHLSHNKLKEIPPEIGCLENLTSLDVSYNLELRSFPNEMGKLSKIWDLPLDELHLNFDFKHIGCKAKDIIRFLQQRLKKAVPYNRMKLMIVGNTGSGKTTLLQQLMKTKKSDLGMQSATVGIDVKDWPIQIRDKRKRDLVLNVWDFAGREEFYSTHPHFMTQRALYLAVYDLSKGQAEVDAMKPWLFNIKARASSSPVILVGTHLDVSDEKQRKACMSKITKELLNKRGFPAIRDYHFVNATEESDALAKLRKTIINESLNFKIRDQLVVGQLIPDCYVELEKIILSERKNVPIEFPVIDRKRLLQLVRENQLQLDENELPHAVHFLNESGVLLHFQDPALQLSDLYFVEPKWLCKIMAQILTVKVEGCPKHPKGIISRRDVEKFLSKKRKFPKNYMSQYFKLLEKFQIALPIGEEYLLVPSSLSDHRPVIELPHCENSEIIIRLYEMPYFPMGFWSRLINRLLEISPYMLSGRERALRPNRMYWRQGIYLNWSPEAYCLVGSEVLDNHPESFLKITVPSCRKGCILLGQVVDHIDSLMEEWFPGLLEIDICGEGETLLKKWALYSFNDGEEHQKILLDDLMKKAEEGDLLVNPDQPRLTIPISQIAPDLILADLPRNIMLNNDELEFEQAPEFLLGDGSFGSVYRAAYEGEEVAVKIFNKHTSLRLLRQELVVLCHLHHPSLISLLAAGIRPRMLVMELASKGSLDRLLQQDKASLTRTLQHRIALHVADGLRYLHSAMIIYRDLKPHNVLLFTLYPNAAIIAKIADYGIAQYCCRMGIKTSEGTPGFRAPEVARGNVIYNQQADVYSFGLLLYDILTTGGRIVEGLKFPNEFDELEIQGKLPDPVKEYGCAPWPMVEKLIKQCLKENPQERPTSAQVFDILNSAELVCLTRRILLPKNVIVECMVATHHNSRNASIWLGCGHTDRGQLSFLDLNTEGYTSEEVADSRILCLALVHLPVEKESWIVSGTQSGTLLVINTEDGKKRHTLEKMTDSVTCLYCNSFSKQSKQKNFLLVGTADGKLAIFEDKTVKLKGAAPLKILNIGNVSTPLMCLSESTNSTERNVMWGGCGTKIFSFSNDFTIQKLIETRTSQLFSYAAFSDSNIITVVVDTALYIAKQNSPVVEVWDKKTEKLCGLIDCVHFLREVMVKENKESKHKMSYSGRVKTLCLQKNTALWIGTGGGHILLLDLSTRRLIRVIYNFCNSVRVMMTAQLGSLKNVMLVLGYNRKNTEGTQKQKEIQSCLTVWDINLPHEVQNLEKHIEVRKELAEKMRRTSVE
T2 sequence (Q5S007 970-2527): as above
T3 sequence (Q5S007 970-2527 G2019S): as the sequence (Q5S007 970-2527) above, with G1050S counted along it
T4 sequence (Q5S007 whole entry): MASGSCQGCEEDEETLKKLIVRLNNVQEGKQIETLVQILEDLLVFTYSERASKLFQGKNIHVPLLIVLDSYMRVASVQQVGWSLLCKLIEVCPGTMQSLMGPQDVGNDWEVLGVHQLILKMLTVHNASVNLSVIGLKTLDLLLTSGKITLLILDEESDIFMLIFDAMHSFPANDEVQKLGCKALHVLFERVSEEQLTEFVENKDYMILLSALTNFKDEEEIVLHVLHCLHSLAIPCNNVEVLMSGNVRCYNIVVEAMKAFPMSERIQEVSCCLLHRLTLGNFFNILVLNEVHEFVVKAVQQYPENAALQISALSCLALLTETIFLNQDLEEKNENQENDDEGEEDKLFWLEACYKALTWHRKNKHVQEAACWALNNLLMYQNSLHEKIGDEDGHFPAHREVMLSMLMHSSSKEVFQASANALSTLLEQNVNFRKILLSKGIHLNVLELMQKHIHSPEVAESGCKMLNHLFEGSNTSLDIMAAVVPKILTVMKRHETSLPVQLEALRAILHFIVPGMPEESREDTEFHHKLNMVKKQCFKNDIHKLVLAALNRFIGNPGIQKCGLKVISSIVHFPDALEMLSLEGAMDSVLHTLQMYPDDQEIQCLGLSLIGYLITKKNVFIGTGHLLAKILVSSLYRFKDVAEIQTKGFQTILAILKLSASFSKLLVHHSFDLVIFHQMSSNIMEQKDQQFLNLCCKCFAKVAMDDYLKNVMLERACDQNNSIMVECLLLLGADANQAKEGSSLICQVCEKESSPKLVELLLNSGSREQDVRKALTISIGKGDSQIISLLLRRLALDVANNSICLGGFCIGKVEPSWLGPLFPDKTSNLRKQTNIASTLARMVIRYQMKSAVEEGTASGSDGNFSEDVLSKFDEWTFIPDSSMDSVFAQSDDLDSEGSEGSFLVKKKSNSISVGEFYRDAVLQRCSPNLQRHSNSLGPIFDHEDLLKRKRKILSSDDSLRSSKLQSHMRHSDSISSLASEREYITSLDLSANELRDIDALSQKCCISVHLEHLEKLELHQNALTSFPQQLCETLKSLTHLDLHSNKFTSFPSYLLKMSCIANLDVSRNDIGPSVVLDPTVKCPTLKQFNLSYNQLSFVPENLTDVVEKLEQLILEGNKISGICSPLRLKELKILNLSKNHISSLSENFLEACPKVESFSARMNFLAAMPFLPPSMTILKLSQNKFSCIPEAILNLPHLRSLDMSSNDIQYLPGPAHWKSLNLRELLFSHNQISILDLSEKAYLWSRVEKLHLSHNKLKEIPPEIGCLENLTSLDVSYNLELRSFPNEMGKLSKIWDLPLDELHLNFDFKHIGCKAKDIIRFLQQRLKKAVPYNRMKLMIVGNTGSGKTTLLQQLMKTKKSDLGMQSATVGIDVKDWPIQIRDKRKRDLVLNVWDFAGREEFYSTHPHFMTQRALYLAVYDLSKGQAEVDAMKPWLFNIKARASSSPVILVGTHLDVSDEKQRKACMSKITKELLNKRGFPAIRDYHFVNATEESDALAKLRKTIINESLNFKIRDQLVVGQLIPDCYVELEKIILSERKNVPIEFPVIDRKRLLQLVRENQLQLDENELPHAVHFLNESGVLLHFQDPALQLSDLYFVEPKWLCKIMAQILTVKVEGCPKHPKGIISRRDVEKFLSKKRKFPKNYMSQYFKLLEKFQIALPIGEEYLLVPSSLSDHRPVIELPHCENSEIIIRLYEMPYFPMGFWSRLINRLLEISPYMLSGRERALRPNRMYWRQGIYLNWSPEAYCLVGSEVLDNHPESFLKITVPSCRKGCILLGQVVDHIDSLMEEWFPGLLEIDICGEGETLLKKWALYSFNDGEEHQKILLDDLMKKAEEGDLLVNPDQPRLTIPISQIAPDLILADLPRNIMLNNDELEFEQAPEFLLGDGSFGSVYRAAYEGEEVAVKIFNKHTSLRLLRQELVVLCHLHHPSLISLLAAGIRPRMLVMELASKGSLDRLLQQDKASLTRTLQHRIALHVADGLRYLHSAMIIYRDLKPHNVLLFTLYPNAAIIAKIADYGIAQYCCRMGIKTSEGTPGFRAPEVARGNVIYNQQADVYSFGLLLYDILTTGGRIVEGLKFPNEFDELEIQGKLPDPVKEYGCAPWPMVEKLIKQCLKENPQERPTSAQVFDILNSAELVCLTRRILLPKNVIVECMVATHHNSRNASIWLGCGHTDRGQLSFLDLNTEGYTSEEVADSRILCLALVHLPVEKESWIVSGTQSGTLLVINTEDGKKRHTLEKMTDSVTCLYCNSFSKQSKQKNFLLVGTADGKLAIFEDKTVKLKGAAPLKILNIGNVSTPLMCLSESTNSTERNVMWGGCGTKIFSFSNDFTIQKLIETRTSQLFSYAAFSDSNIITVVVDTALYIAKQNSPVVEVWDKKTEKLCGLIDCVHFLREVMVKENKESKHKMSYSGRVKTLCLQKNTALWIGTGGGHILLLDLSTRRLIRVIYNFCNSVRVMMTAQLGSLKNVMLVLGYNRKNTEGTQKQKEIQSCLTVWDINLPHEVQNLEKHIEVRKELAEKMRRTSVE

Row | Structure (SMILES) | pIC50 (truncated LRRK2; [4]) | also measured
1 | O=C1CCC(=O)Nc2cccc(c2)-c2cnn3ccc(nc23)OCCCN1 [Compound 68] | < 6.00 | melting point: 295.1 °C
2 | O=C(C1CC1)N1CCOc2cccc(c2)-c2cnn3ccc(nc23)N(CCO)CC1 [Compound 63] | 6.00 to 7.00 | 
3 | O=C1CNc2ccn3ncc(c3n2)-c2cccc(c2)OCCCCN1 |  | ring closure, yield of all isomers ([1]; from NCCCCOc1cccc(-c2cnn3ccc(NCC(=O)O)nc23)c1, amide bond, HBTU/DIPEA, DMF, 10.0 mM, 25.0 °C, 2.0 h): 19%; melting point: > 300 °C
4 | CN1CCC(=O)NCCNc2ccn3ncc(c3n2)-c2cccc(c2)C1 [Compound 60] | > 7.00 | 
5 | CN(C)CCN1CCNc2ccn3ncc(c3n2)-c2cccc(c2)OCC1=O [Example 46] | < 6.00 | 
6 | O=C1CCNc2ccn3ncc(c3n2)-c2cccc(c2)OCCN1 [Example 3] |  | melting point: > 300 °C; pIC50 [2]: > 7.00; pIC50 [3]: > 7.00; pIC50 (full-length LRRK2): > 7.00
7 | O=C1CCNc2ccn3ncc(c3n2)-c2cc(F)cc(c2)OCCN1 |  | ring closure, yield of all isomers ([1]; from NCCOc1cc(F)cc(-c2cnn3ccc(NCCC(=O)O)nc23)c1, amide bond, HBTU/DIPEA, DMF, 28.6 mM, 25.0 °C, 1.0 h): 18%
8 | COc1ccc2cc1OCCN(C(=O)C1CC1)CCNc1ccn3ncc-2c3n1 [Compound 66] | 6.00 to 7.00 | 
9 | O=C1CCNCc2cccc(c2)-c2cnn3ccc(nc23)NCCN1 [Compound 59] | < 6.00 | 
10 | CCC(=O)N1CCNc2ccn3ncc(c3n2)-c2cccc(c2)N(C)CC1 [Compound 71] |  | melting point: > 300 °C
11 | CCC(=O)N1CCNc2cccc(c2)-c2cnn3ccc(nc23)NCC1 [Example 17] | > 7.00 | 
12 | O=C1CNc2ccn3ncc(c3n2)-c2cccc(c2)OCCCN1 [Compound 57] | < 6.00 | 
13 | CCCC(=O)N1CCNCc2cccc(c2)-c2cnn3ccc(nc23)NCC1 [Compound 55] | < 6.00 | 
14 | O=C1CNc2ccn3ncc(c3n2)-c2cccc(c2)OCCOCCN1 [Compound 72] |  | ring closure, yield of all isomers ([1]; from NCCOCCOc1cccc(-c2cnn3ccc(NCC(=O)O)nc23)c1, amide bond, HBTU/DIPEA, DMF, 10.0 mM, 25.0 °C, 2.0 h): 30%; melting point: 272.5 °C
15 | COCCC(=O)N1CCNCc2cccc(c2)-c2cnn3ccc(nc23)NCC1 [Compound 54] | 6.00 to 7.00 | 
16 | CN1CCCOc2cccc(c2)-c2cnn3ccc(nc23)NCCCC1=O [Compound 65] | < 6.00 | 
17 | O=C(CF)N1CCNc2ccn3ncc(c3n2)-c2cccc(c2)OCC1 [Example 50] |  | pIC50 (truncated LRRK2): > 7.00
18 | C=CC(=O)N1CCNc2ccn3ncc(c3n2)-c2cccc(c2)OCC1 [Compound 70] | > 7.00 | melting point: > 300 °C

Row | Structure (SMILES) | pIC50 (truncated LRRK2; [4]) | also measured
19 | CS(=O)(=O)N1CCNc2ccn3ncc(c3n2)-c2cccc(c2)OCC1 [Example 14] | 6.00 to 7.00 | 
20 | CN(C)C(=O)N1CCNc2ccn3ncc(c3n2)-c2cccc(c2)OCC1 [Example 11] | > 7.00 | 
21 | C[C@H]1NCc2cccc(c2)-c2cnn3ccc(nc23)NCCNC1=O [Compound 62] | < 6.00 | 
22 | O=C1CN(C(=O)C2CC2)CCNc2ccn3ncc(c3n2)-c2cccc(c2)N1 [Compound 67] | < 6.00 | 
23 | COCCC(=O)N1CCCN(C)c2cccc(c2)-c2cnn3ccc(nc23)NCC1 [Example 19] | 6.00 to 7.00 | 
24 | CN(C)CCN1CCN(C)c2ccn3ncc(c3n2)-c2cccc(c2)OCC1=O [Compound 58] | < 6.00 | 
25 | C[C@@H]1NCc2cccc(c2)-c2cnn3ccc(nc23)NCCNC1=O [Compound 64] | < 6.00 | 
26 | O=C(CCF)N1CCNc2ccn3ncc(c3n2)-c2cccc(c2)OCC1 [Example 10] | > 7.00 | 
27 | COC(=O)c1cc2cc(c1)-c1cnn3ccc(nc13)N(C(=O)OC(C)(C)C)CCN(C(=O)OC(C)(C)C)CCO2 |  | ring closure, yield of all isomers ([1]; from COC(=O)c1cc(O)cc(-c2cnn3ccc(N(CCN(CCO)C(=O)OC(C)(C)C)C(=O)OC(C)(C)C)nc23)c1, ether bond, DIAD/PPh3, toluene, 8.7 mM, 90.0 °C, 3.5 h): 89%
28 | CC(C)C(=O)N1CCNCc2cccc(c2)-c2cnn3ccc(nc23)NCC1 [Compound 53] | < 6.00 | 
29 | NC(=O)CN1CCNc2ccn3ncc(c3n2)-c2cccc(c2)OCC1 [Example 13] | > 7.00 | 
30 | O=C(CCO)N1CCNc2ccn3ncc(c3n2)-c2cccc(c2)OCC1 [Example 4] |  | melting point: > 300 °C; pIC50 [2]: > 7.00; pIC50 [3]: > 7.00
31 | NC(=O)c1cc2cc(c1)-c1cnn3ccc(nc13)NCCN(C(=O)C1CC1)CCO2 [Compound 69] | < 6.00 | melting point: > 300 °C
32 | O=C(C1CC1)N1CCNc2ccn3ncc(c3n2)-c2cccc(c2)OCC1 [Example 1] |  | melting point: > 300 °C; pIC50 [2]: > 7.00; pIC50 [3]: > 7.00
33 | O=S1(=O)CCCOc2cccc(c2)-c2cnn3ccc(nc23)NCCN1 [Example 8] |  | melting point: 269 °C
34 | CCOC(=O)N1CCCNc2ccn3ncc(c3n2)-c2cccc(c2)OCC1 [Example 12] | 6.00 to 7.00 | 
35 | CN1CC(=O)NCCNc2ccn3ncc(c3n2)-c2cccc1c2 [Compound 61] | < 6.00 | 
36 | CN(C)CCC(=O)N1CCNCc2cccc(c2)-c2cnn3ccc(nc23)NCC1 [Compound 56] | < 6.00 | 

Further lines, with some results ahead:

Row | pIC50 (truncated LRRK2; [4]) | Structure (SMILES) | also measured
37 | 6.00 to 7.00 | O=C(C1CC1)N1CCNCc2cccc(c2)-c2cnn3ccc(nc23)NCC1 [Example 51] | 
38 | 6.00 to 7.00 | O=C1CNc2cccc(c2)-c2cnn3ccc(nc23)NCCN1 [Example 49] | 
39 | > 7.00 | O=C(C1CC1)N1CCNc2cccc(c2)-c2cnn3ccc(nc23)NCC1 [Example 35] | 
40 | > 7.00 | O=C(c1ccc[nH]1)N1CCNc2ccn3ncc(c3n2)-c2cccc(c2)OCC1 [Example 32] | 
41 | > 7.00 | CN(C)CCC(=O)N1CCNc2ccn3ncc(c3n2)-c2cccc(c2)OCC1 [Example 41] | 
42 | > 7.00 | CNCC(=O)N1CCNc2ccn3ncc(c3n2)-c2cccc(c2)OCC1 [Example 37] | 
43 | 6.00 to 7.00 | O=C1NCCN(C(=O)C2CC2)CCNc2ccn3ncc(c3n2)-c2cccc1c2 [Example 45] | 
44 | > 7.00 | O=C(CCN1CCCC1)N1CCNc2ccn3ncc(c3n2)-c2cccc(c2)OCC1 [Example 40] | 
45 | > 7.00 | O=C(c1cocn1)N1CCNc2ccn3ncc(c3n2)-c2cccc(c2)OCC1 [Example 33] | 
46 | 6.00 to 7.00 | O=C(N1CCNc2ccn3ncc(c3n2)-c2cccc(c2)OCC1)N1CCN(CCF)CC1 [Example 29] | 
47 | 6.00 to 7.00 | COCCC(=O)N1CCNc2ccn3ncc(c3n2)-c2cccc(c2)OCC1 [Example 31] | 
48 | > 7.00 | N#Cc1ccc2cc1OCCN(C(=O)C1CC1)CCNc1ccn3ncc-2c3n1 [Example 42] | 
49 | 6.00 to 7.00 | O=S(=O)(C1CC1)N1CCNc2ccn3ncc(c3n2)-c2cccc(c2)OCC1 [Example 34] | 
50 | 6.00 to 7.00 | CC(=O)N1CCNCc2cccc(c2)-c2cnn3ccc(nc23)NCC1 [Example 52] | 
51 | < 6.00 | CC(C)N1CCNc2ccn3ncc(c3n2)-c2cccc(c2)OCC1=O [Example 44] | 
52 | 6.00 to 7.00 | CN1CCNc2ccn3ncc(c3n2)-c2cccc(c2)OCCCS1(=O)=O [Example 47] | 
53 | > 7.00 | NC(=O)N1CCNc2ccn3ncc(c3n2)-c2cccc(c2)OCC1 [Example 38] | 
54 | 6.00 to 7.00 | O=C1CCCNc2ccn3ncc(c3n2)-c2cccc(c2)OCCCN1 [Example 43] | 
55 | 6.00 to 7.00 | O=C(CN1CCOCC1)N1CCNc2ccn3ncc(c3n2)-c2cccc(c2)OCC1 [Example 36] | 
56 | 6.00 to 7.00 | CN1CCN(CC(=O)N2CCNc3ccn4ncc(c4n3)-c3cccc(c3)OCC2)CC1 [Example 39] | 
57 | 6.00 to 7.00 | CN(C)CCN1CCN(C(=O)C2CC2)CCOc2cccc(c2)-c2cnn3ccc1nc23 [Example 48] | 
